Article PMC6270973, “Two New Phenolic Compounds from the Heartwood of Caesalpinia sappan L” (Molecules, 2013)

Test system: nitric oxide production in LPS-activated BV-2 microglia
Experiment: Inhibition of NO production in LPS-stimulated BV-2 microglia
Assay type: cell-based
Conditions: LPS-activated BV-2 microglia; IC50 values lower than those of quercetin, the positive control
Method: Two new compounds and six known compounds caesalpin J (3), 1-hydroxy-7-methylxanthone (4), 1,5-dihydroxyxanthone (5), 1,7-dihydroxyxanthone (6), butein (7), and sappanone A (8) were evaluated for their inhibitory activities against nitric oxide production in LPS-activated BV-2 microglia according to a previously described method.
Cytotoxicity was determined with the MTT assay.

Compound | inhibitory activity against nitric oxide production (in words)
1-hydroxy-7-methylxanthone [Compound 4] | obvious inhibitory activity
O=c1c2cc(O)ccc2oc2cccc(O)c12 [Compound 6, 1,7-dihydroxyxanthone] | obvious inhibitory activity
O=C(/C=C/c1ccc(O)c(O)c1)c1ccc(O)cc1O [Compound 7, butein] | obvious inhibitory activity
O=C1/C(=C/c2ccc(O)c(O)c2)COc2cc(O)ccc21 [Compound 8, sappanone A] | obvious inhibitory activity

Same assay, conditions: LPS-activated BV-2 microglia; maximum concentration tested 50 μM; read-out: IC50 (µM), inhibition of NO production

IC50 | Compound
14.2 µM | 1-hydroxy-7-methylxanthone [Compound 4]
45.9 µM | CO[C@H]1[C@]2(O)COC3=CC(=O)C=C[C@@]31c1cc(O)c(O)cc1C2 [Compound 3, caesalpin J]

Same assay, conditions: Mus musculus, BV-2, LPS-activated BV-2 microglia; maximum concentration tested 50 μM; read-out: IC50 (µM), inhibition of NO production

IC50 | Compound
28.7 µM | O=c1c2cccc(O)c2oc2cccc(O)c12 [Compound 5, 1,5-dihydroxyxanthone]
15.5 µM | O=C(/C=C/c1ccc(O)c(O)c1)c1ccc(O)cc1O [Compound 7, butein]
8.26 µM | O=C1/C(=C/c2ccc(O)c(O)c2)COc2cc(O)ccc21 [Compound 8, sappanone A]
23.4 µM | O=c1c(O)c(-c2ccc(O)c(O)c2)oc2cc(O)cc(O)c12 [quercetin, reference compound]

Further lines, the compound ahead of its results:

Compound | IC50
CO[C@H]1[C@]2(O)COC3=CC(=O)C=C[C@@]31c1cc(O)c(O)cc1C2 [Compound 1, epicaesalpin J] | 52.6 µM
O=C1C=CC23CC(O)(COC2=C1)Cc1cc(O)c(O)cc13 (stereo not drawn) [Compound 2, 7,10,11-trihydroxydracaenone] | 56.7 µM

Same assay, conditions: Mus musculus, BV-2, read-out: IC50 (µM), inhibition of NO production

Compound | IC50
O=c1c2cc(O)ccc2oc2cccc(O)c12 [Compound 6, 1,7-dihydroxyxanthone] | 21.5 µM

Test system: BV-2 microglia
Experiment: Cytotoxicity (cell viability) by MTT assay
Conditions: compound at 50 µM, 50 µM
Method: (§1) Each compound was dissolved in DMSO and further diluted in the medium to produce different concentrations with a maximum concentration of 50 μM. The absorbance was measured at 570 nm with a Multilabel Plate Reader (Sunrise TECAN, Männedorf, Switzerland). Cytotoxicity was determined with the MTT assay. Quercetin (Sigma-Aldrich, Foster City, CA, USA) was used as the positive control.

Compound | Viability (at 50 µM, %)
CO[C@H]1[C@]2(O)COC3=CC(=O)C=C[C@@]31c1cc(O)c(O)cc1C2 [Compound 3, caesalpin J] | 96.13%

Test system: not listed separately
Experiment: Cytotoxicity (cell viability) by MTT assay
Conditions: mouse, BV-2 microglia cells, Viability (at 50 µM, %), compound at 50 µM
Method: as §1

Compound | viability at 50 µM
CO[C@H]1[C@]2(O)COC3=CC(=O)C=C[C@@]31c1cc(O)c(O)cc1C2 [Compound 1, epicaesalpin J] | 96.5%
O=C1C=CC23CC(O)(COC2=C1)Cc1cc(O)c(O)cc13 (stereo not drawn) [Compound 2, 7,10,11-trihydroxydracaenone] | 99.3%
O=c1c2cccc(O)c2oc2cccc(O)c12 [Compound 5, 1,5-dihydroxyxanthone] | 101%
O=c1c2cc(O)ccc2oc2cccc(O)c12 [Compound 6, 1,7-dihydroxyxanthone] | 102%
O=C(/C=C/c1ccc(O)c(O)c1)c1ccc(O)cc1O [Compound 7, butein] | 94%
O=C1/C(=C/c2ccc(O)c(O)c2)COc2cc(O)ccc21 [Compound 8, sappanone A] | 99.3%

Test system: BV-2 microglia
Experiment: not given
Conditions: not given

Compound | Viability (at 50 µM, %)
1-hydroxy-7-methylxanthone [Compound 4] | 98.94%
